The record followed here is the NIST ThermoML archive (doi:10.1016/j.fluid.2007.07.065).

Molecules are shown by their SMILES. ± gives the expanded uncertainty stated by the source.

For the series the following is noted: Crystal; Heating/Cooling curves.
Take `CC(=O)O` [acetic acid]: the Normal melting temperature is 16.69 ± 0.1 °C. Take `NC=O` [formamide]: the Normal melting temperature was 2.39 ± 0.1 °C. Turning to `CCC(=O)O` [propanoic acid], the Normal melting temperature was -20.61 ± 0.1 °C.
